Data as given in ChEMBL document CHEMBL1201862, “PubChem BioAssay data set” (2004).
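Compound exposure: 48 hours, 5 concentrations, 96-well plates. GI50 marks 50% less growth.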 The source made the active and inactive calls. Cut-off read from the data, not from the text of the source: active = GI50 up to about 1.1 µM and inactive = higher.

How the values were obtained:
Experiment in all cases: inhibition of tumour cell growth, NCI panel, 48 h
[1] = tested on: HCT-15
[2] = tested on: SN12C
[3] = tested on: SF-295
[4] = tested on: OVCAR-4
[5] = tested on: Malme-3M
[6] = tested on: U-251
[7] = tested on: HCC 2998
[8] = tested on: UACC-62
[9] = tested on: HOP-18
[10] = tested on: NCI-H23
[11] = tested on: SK-MEL-28
[12] = tested on: HL-60
[13] = tested on: SF-268
[14] = tested on: HCT-116
[15] = tested on: A498
[16] = tested on: RXF 393
[17] = tested on: CAKI-1

SMILES	GI50 [1] [µM]	GI50 [2]	GI50 [3]	GI50 [4]	GI50 [5]	GI50 [6]	GI50 [7]	GI50 [8]	GI50 [9]	GI50 [10]	GI50 [11]	GI50 [12]	GI50 [13]	GI50 [14]	GI50 [15]	GI50 [16]	GI50 [17]
Cc1cccc(C(C)(C)C)c1NC(=O)C(=O)C(C(=O)/C=C\c1ccccc1)C1OC(=O)c2ccccc21 (configuration not stated)	> 100	> 100 µM (inactive)	> 100 µM (inactive)	> 100 µM (inactive)	> 100 µM (inactive)	> 100 µM (inactive)	> 100 µM (inactive)	> 100 µM (inactive)	> 100 µM (inactive)	> 100 µM (inactive)	> 100 µM (inactive)	> 100 µM (inactive)	> 100 µM (inactive)	> 100 µM (inactive)	> 100 µM (inactive)	> 100 µM (inactive)	> 100 µM (inactive)
CC12CCC3(C1)[C@H](CC2=O)C[C@@H](OC(=O)c1ccccc1)C1C(C)(CO)CCC[C@@]13C (some centres not stated)	1.5	4.35 µM (inactive)	0.322 µM (active)	1.44 µM (inactive)	9.42 µM (inactive)	2.38 µM (inactive)	1.97 µM (inactive)	0.0288 µM (active)	26.7 µM (inactive)	0.681 µM (active)	13.3 µM (inactive)	0.327 µM (active)	5.11 µM (inactive)	2.22 µM (inactive)	3.12 µM (inactive)	1.71 µM (inactive)	0.861 µM (active)
O=C(CCC1C(=O)NC(=S)NC1=O)c1ccc2ccccc2c1	> 100	> 100 µM (inactive)	> 100 µM (inactive)	> 100 µM (inactive)	> 100 µM (inactive)	> 100 µM (inactive)	> 100 µM (inactive)	> 100 µM (inactive)	> 100 µM (inactive)	> 100 µM (inactive)	> 100 µM (inactive)	> 100 µM (inactive)	> 100 µM (inactive)	> 100 µM (inactive)	> 100 µM (inactive)	> 100 µM (inactive)	> 100 µM (inactive)
COc1ccc2cc(C(=O)c3ccccc3C(=O)O)ccc2c1	> 100	> 100 µM (inactive)	> 100 µM (inactive)	> 100 µM (inactive)	> 100 µM (inactive)	> 100 µM (inactive)	> 100 µM (inactive)	> 100 µM (inactive)	> 100 µM (inactive)	> 100 µM (inactive)	> 100 µM (inactive)	> 100 µM (inactive)	> 100 µM (inactive)	> 100 µM (inactive)	> 100 µM (inactive)	> 100 µM (inactive)	> 100 µM (inactive)
COC(=O)C(C(=O)C(=O)Nc1c(C)cccc1C)c1cnc2ccccc2n1 (configuration not stated)	> 100	> 100 µM (inactive)	> 100 µM (inactive)	> 100 µM (inactive)	> 100 µM (inactive)	> 100 µM (inactive)	> 100 µM (inactive)	> 100 µM (inactive)	> 100 µM (inactive)	> 100 µM (inactive)	> 100 µM (inactive)	> 100 µM (inactive)	> 100 µM (inactive)	> 100 µM (inactive)	> 100 µM (inactive)	> 100 µM (inactive)	> 100 µM (inactive)
CCCCCCCCCCCC(=O)OC(COC(N)=O)COc1ccc(Cl)cc1 (configuration not stated)	28	26.7 µM (inactive)	20.3 µM (inactive)	19.1 µM (inactive)	21.9 µM (inactive)	25.8 µM (inactive)	30.5 µM (inactive)	19.5 µM (inactive)	11.3 µM (inactive)	20.7 µM (inactive)	20.3 µM (inactive)	15.3 µM (inactive)	20.6 µM (inactive)	15.9 µM (inactive)	65.9 µM (inactive)	21 µM (inactive)	21.3 µM (inactive)
